Source: ChEMBL document CHEMBL1201862, “PubChem BioAssay data set” (2004)
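The compound was tested at five concentrations on cells cultured in 96-well plates, with a 48-hour exposure period. At the GI50, growth is halved.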 The source made the active and inactive calls. No stated cut-off is given here; in the data, active = GI50 up to about 1.1 µM and inactive = higher.

Key:
Assay in all cases: NCI tumour cell line growth inhibition, 48 h
ACHN = system: ACHN
CAKI-1 = system: CAKI-1
COLO 205 = system: COLO 205
HCT-116 = system: HCT-116
HCT-15 = system: HCT-15
HOP-62 = system: HOP-62
MDA-N = system: MDA-N
NCI-H522 = system: NCI-H522
NCI/ADR-RES = system: NCI/ADR-RES
RPMI-8226 = system: RPMI-8226
RXF 393 = system: RXF 393
SF-295 = system: SF-295
SK-MEL-5 = system: SK-MEL-5
SNB-19 = system: SNB-19
SNB-75 = system: SNB-75
UACC-62 = system: UACC-62
UO-31 = system: UO-31
A498 = system: A498
LOX IMVI = system: LOX IMVI
Hs-578T = system: Hs-578T

SMILES | GI50 (ACHN) | GI50 (CAKI-1) | GI50 (COLO 205) | GI50 (HCT-116) | GI50 (HCT-15) [µM] | GI50 (HOP-62) | GI50 (MDA-N) | GI50 (NCI-H522) | GI50 (NCI/ADR-RES) | GI50 (RPMI-8226) | GI50 (RXF 393) | GI50 (SF-295) | GI50 (SK-MEL-5) | GI50 (SNB-19) | GI50 (SNB-75) | GI50 (UACC-62) | GI50 (UO-31) | GI50 (A498) | GI50 (LOX IMVI) | GI50 (Hs-578T)
CC(C)=Nn1cnc(C(=N)C#N)c1N | > 100 µM (inactive) | > 100 µM (inactive) | > 100 µM (inactive) | > 100 µM (inactive) | > 100 | > 100 µM (inactive) | > 100 µM (inactive) | > 100 µM (inactive) | > 100 µM (inactive) | > 100 µM (inactive) | > 100 µM (inactive) | 29.4 µM (inactive) | > 10 µM (inactive) | > 100 µM (inactive) | 37.1 µM (inactive) | > 100 µM (inactive) | > 100 µM (inactive) |  |  | 
CC1=CC[C@@H]2[C@@H](CC[C@@]2(C)O)C(C)(C)[C@H]1CC[C@@H]1[C@@]2(C)CC[C@@H](O)C(C)(C)O[C@@H]2CC[C@]1(C)O | 23.2 µM (inactive) | 20 µM (inactive) | 19.4 µM (inactive) | 14 µM (inactive) | 18.2 | 23.2 µM (inactive) | 22.5 µM (inactive) |  |  | 18.9 µM (inactive) |  | 33.1 µM (inactive) | 13.3 µM (inactive) | 14.2 µM (inactive) |  | 15.5 µM (inactive) | 17 µM (inactive) | 15 µM (inactive) | 16.3 µM (inactive) | 
CC1=C(C(N)=O)C(c2ccncc2)C(C#N)C(=O)N1 (stereo not drawn) | > 100 µM (inactive) | > 100 µM (inactive) | > 100 µM (inactive) | > 100 µM (inactive) | > 100 | > 100 µM (inactive) |  |  |  | > 100 µM (inactive) | > 100 µM (inactive) | > 100 µM (inactive) | > 100 µM (inactive) | > 100 µM (inactive) | > 100 µM (inactive) | > 100 µM (inactive) | > 100 µM (inactive) | > 100 µM (inactive) | > 100 µM (inactive) | > 100 µM (inactive)
CC[C@@]1(O)C(=O)OCc2c1cc1n(c2=O)Cc2cc3c(OC)cccc3nc2-1 |  |  | 1.21 µM (inactive) |  | 0.805 |  |  | 0.145 µM (active) |  | 0.0158 µM (active) | 0.308 µM (active) | < 0.1 µM (active) | 0.116 µM (active) | < 0.1 µM (active) | 0.0622 µM (active) | < 0.1 µM (active) |  | 0.6 µM (active) | < 0.1 µM (active) | 12.8 µM (inactive)
O=C1CCC(Cc2ccc(Cl)cc2Cl)C(=O)N1 (stereo not drawn) | > 100 µM (inactive) | > 100 µM (inactive) | > 100 µM (inactive) | > 100 µM (inactive) | 82.8 | > 100 µM (inactive) |  | 66.7 µM (inactive) | > 100 µM (inactive) | 79.4 µM (inactive) | 32 µM (inactive) | > 100 µM (inactive) | > 100 µM (inactive) | > 100 µM (inactive) | 64.6 µM (inactive) | > 100 µM (inactive) | 83.6 µM (inactive) |  | > 100 µM (inactive) | 81.5 µM (inactive)
COc1ccc(NC(=O)/C(Cc2nc3ccccc3nc2O)=N\O)c(OC)c1 | > 100 µM (inactive) | > 100 µM (inactive) | > 100 µM (inactive) | > 100 µM (inactive) | > 100 | > 100 µM (inactive) |  | > 100 µM (inactive) |  | > 100 µM (inactive) | > 100 µM (inactive) | > 100 µM (inactive) | > 100 µM (inactive) | > 100 µM (inactive) | > 100 µM (inactive) | > 100 µM (inactive) | > 100 µM (inactive) | > 100 µM (inactive) | > 100 µM (inactive) | 
O=C(CC(C(=O)c1ccsc1)c1cccs1)c1ccsc1 (stereo not drawn) | 42 µM (inactive) | > 100 µM (inactive) | 45.1 µM (inactive) |  | 45.6 | > 100 µM (inactive) | 30.1 µM (inactive) |  | 17.5 µM (inactive) | 12.1 µM (inactive) |  | 43.7 µM (inactive) | 31.4 µM (inactive) | > 100 µM (inactive) | 27.4 µM (inactive) | 31.5 µM (inactive) | 25.8 µM (inactive) | 81.8 µM (inactive) | 34.1 µM (inactive) | 
COc1ccc(CCc2cc(OC)cc(OC)c2)cc1 | 58.5 µM (inactive) | 13.2 µM (inactive) | 12 µM (inactive) | 24.3 µM (inactive) | 7.06 | 16.7 µM (inactive) |  | 4.98 µM (inactive) |  | 16.1 µM (inactive) | 18 µM (inactive) | 22.6 µM (inactive) | 19.2 µM (inactive) | > 100 µM (inactive) | 32.9 µM (inactive) | 11.9 µM (inactive) | 52.7 µM (inactive) | 17 µM (inactive) | 38.8 µM (inactive) | 
CN(C)CCC(=O)/C=C\c1ccccc1 | 18.2 µM (inactive) | 18.3 µM (inactive) | 15.8 µM (inactive) | 15.3 µM (inactive) | 16.1 | 67.3 µM (inactive) |  | 18.9 µM (inactive) |  | 14.6 µM (inactive) | 15.6 µM (inactive) | 20.3 µM (inactive) | 17.6 µM (inactive) | 39.2 µM (inactive) | 60.1 µM (inactive) | 17.4 µM (inactive) | 17.6 µM (inactive) | 20 µM (inactive) | 14.3 µM (inactive) | 
COc1ccc(C(=O)C#Cc2cnc(O)nc2O)cc1 | 14.8 µM (inactive) | 9.64 µM (inactive) | 11.9 µM (inactive) | 6.03 µM (inactive) | 7.83 | 19.7 µM (inactive) |  | 3.12 µM (inactive) |  | 13.3 µM (inactive) | 5.47 µM (inactive) | 33 µM (inactive) | 13.5 µM (inactive) | 17.5 µM (inactive) | 23.8 µM (inactive) | 12.9 µM (inactive) | 17.2 µM (inactive) | 23.7 µM (inactive) | 3.21 µM (inactive) | 
CSC(=S)NN=C1CCCCC1 | 21 µM (inactive) | 20.1 µM (inactive) | 47.1 µM (inactive) | 27.2 µM (inactive) | 29.9 | 47.3 µM (inactive) |  | 24.8 µM (inactive) | 24.7 µM (inactive) | 0.165 µM (active) | > 100 µM (inactive) | 28.4 µM (inactive) | 16 µM (inactive) | 96.6 µM (inactive) | 50.6 µM (inactive) | 18.7 µM (inactive) | > 100 µM (inactive) | > 100 µM (inactive) | 20.5 µM (inactive) | 59 µM (inactive)
CCOC(=O)c1c(-c2cccc3ccccc23)c(C#N)c(=S)n(C2OC(COC(C)=O)C(OC(C)=O)C(OC(C)=O)C2OC(C)=O)c1C (stereo not drawn) | > 100 µM (inactive) |  | > 100 µM (inactive) | > 100 µM (inactive) | > 100 | > 100 µM (inactive) | > 100 µM (inactive) | > 100 µM (inactive) | > 100 µM (inactive) |  | > 100 µM (inactive) | > 100 µM (inactive) | > 100 µM (inactive) | > 100 µM (inactive) | 13.7 µM (inactive) | > 100 µM (inactive) | 1.32 µM (inactive) | > 100 µM (inactive) | > 100 µM (inactive) | 
O=C(c1ccc([N+](=O)[O-])cc1)C(Br)C(Br)c1ccnc2ccccc12 (stereo not drawn) | 4.61 µM (inactive) | 12.2 µM (inactive) | 13 µM (inactive) | 1.92 µM (inactive) | 6.76 | 13.9 µM (inactive) |  | 1.86 µM (inactive) | 8.45 µM (inactive) | 2.23 µM (inactive) | 8.93 µM (inactive) | 9.06 µM (inactive) | 6.34 µM (inactive) | 5.98 µM (inactive) | 4.06 µM (inactive) | 9.4 µM (inactive) | 1.77 µM (inactive) | 3.99 µM (inactive) | 2.11 µM (inactive) | 6.15 µM (inactive)
CCN(CC)CCCCC1CCN(CC(=O)N2c3ccccc3NC(=O)CC2C)CC1 (stereo not drawn) | > 100 µM (inactive) | > 100 µM (inactive) | > 100 µM (inactive) | > 100 µM (inactive) | > 100 | > 100 µM (inactive) |  | 30.3 µM (inactive) |  | 88.1 µM (inactive) | 76.7 µM (inactive) | > 100 µM (inactive) | 98.4 µM (inactive) | > 100 µM (inactive) | > 100 µM (inactive) | > 100 µM (inactive) | > 100 µM (inactive) | > 100 µM (inactive) | 19.4 µM (inactive) | 
O=C(/C=C/c1ccccc1O)c1ccccc1O | > 100 µM (inactive) | > 100 µM (inactive) | > 100 µM (inactive) | 78 µM (inactive) | 35.9 | > 100 µM (inactive) |  | > 100 µM (inactive) |  | 40 µM (inactive) | > 100 µM (inactive) | 51.6 µM (inactive) | > 100 µM (inactive) | > 100 µM (inactive) | > 100 µM (inactive) | > 100 µM (inactive) | > 100 µM (inactive) | > 100 µM (inactive) | > 100 µM (inactive) | 
COC(=O)C[C@H]1CCC2(OCCO2)[C@]1(C)C(=O)OC | > 100 µM (inactive) | > 100 µM (inactive) | > 100 µM (inactive) | > 100 µM (inactive) | > 100 | > 100 µM (inactive) |  | > 100 µM (inactive) |  | > 100 µM (inactive) | > 100 µM (inactive) | > 100 µM (inactive) | > 100 µM (inactive) | > 100 µM (inactive) | > 100 µM (inactive) | > 100 µM (inactive) | > 100 µM (inactive) | > 100 µM (inactive) | > 100 µM (inactive) | 
CCOC(=O)C1=C(C)NC(=O)NC1c1ccc(N(CCCl)CCCl)cc1Cl (stereo not drawn) | 14.5 µM (inactive) | 17.2 µM (inactive) | 18.6 µM (inactive) | 14.3 µM (inactive) | 17.1 | 15.2 µM (inactive) |  | 13.6 µM (inactive) | 16.7 µM (inactive) |  | 17.1 µM (inactive) | 15.8 µM (inactive) | 14.7 µM (inactive) | 17.3 µM (inactive) | 14.9 µM (inactive) | 10.6 µM (inactive) | 14.3 µM (inactive) | 15.9 µM (inactive) | 15.9 µM (inactive) | 17.1 µM (inactive)
